In US12310975B2, “Modulators of BCL6 proteolysis and associated methods of use” (Arvinas Operations, Inc., priority 2019, dated 2025) one finds DC50 data, which are given here for 15 compounds.

This assay concerns the target BCL6 (Homo sapiens (Human), UniProt P41182). Kind of assay: Immunofluorescence high content imaging of BCL6 degradation in T47D cells. The assay is classed as cell-based. To be noted: class symbols A-D, read-out: EC50 (nM)*. The method, then: Immunofluorescence Protocol for High Cotent Imaging of BCL6
T47D cells were seeded in 100 μl volume of RPMI1640-10% FBS in a 96-well black/clear bottom plates for adherent lines (Corning #3904).
Day 1. T47D breast cancer epithelial cells were seeded at a density so that confluence is ˜70-90% at endpoint. Cells were seeded at 7K/0.1 ml/well the morning prior to the addition of exemplary bifunctional degradation compounds.
Day 2. Prepare an 11 point 3-fold serial dilution of exemplary bifunctional compound in DMSO and aliquot an appropriate volume to cell growth media to generate a 2× final concentration of exemplary bifunctional compound. Add an equal volume (0.1 ml) of 2× exemplary bifunctional compound/media mix to previously plated cells, for a final top concentration in aqueous cell growth media of 0.1 or 1 μM. Incubate for 3 days at 37° C., 5% CO2.
Day 5 Immunofluorescence. Discard cell media. Wash wells with 200 μl of room temperature phosphate-buffered saline (PBS). Prepared 4% paraformaldehyde (PFA) from 16% PFA (Electron Microscopy Sciences #15710) using 1×PBS. Fifty μl of 4% PF was added to each well and incubate for 15 minutes at room temperature to fix the cells. The PFA was aspirated and the cells washed twice with PBS (200 μl)).
Prepared 0.1% Triton X-100 in PBS using 10% triton X-100 stock. The cells were permeabilized by adding 100 ul of the 0.1% Triton X-100 in PBS to each well to permeabilize cells and incubating at room temperature for 15 minutes. Cells were washed twice with PBS.
Prepared 3% BSA/PBS (from Thermofisher #37515 Blocker BSA in TBS, 10%), and 100 ul was added to each well. The cells were incubated for at least 1 hour at room temperature.
Prepared 1% BSA/PBS using Blocker BSA/PBS, and the 3% BSA/PBS removed from the wells.
For no primary antibody controls, 50 μl 1% BSA/PBS was added.
Primary antibody (BCL6 Rb Ab, CST-14895, Cell Signaling) was diluted 1:300 in 1% BSA/PBS using Blocker BSA/PBS.
Fifty μl of primary antibody added to all remaining wells (i.e., all wells other than the primary antibody controls) and the cells were incubated overnight at 4° C. with slow orbital movement.
Day 6. Contents of the wells was removed and the cells washed four times with 200 ul PBS. 1% BSA/PBS was prepared using Blocker BSA in PBS.
Diluted secondary antibody goat anti-Rb IgG Alexa-488 1:1000, and cell mask-Alexa-647 1:3000 in 1% BSA/PBS in the same mix. Add 50 μl to each well and incubate at room temperature for 1 hour in the dark.
Cells were washed three times with 200 ul PBS, and then incubated for 10 minutes with 100 ul Hoechst dye at 1 μg/mL (20 mM stock) to stain cell nuclei. Wells were then washed with 200 μl PBS, and 100 ul of PBS was added to each well and the plate covered plate with a plastic opaque cover. Plates were stored at 4° C. and covered in aluminum foil until imaged.
Plates were equilibrated to room temperature prior to reading. The bottom of the plate was wiped with 70% isopropanol immediately prior to imaging.
10×, 4 fields/well, include Top hat smoothing in the analysis protocol.
Take `CNC(=O)COc1cc2cc(Nc3nc(N4CCC(OCCOCCOCCOCCOc5ccc6c(c5)CN(C5CCC(=O)NC5=O)C6=O)CC4)ncc3Cl)ccc2n(C)c1=O` (stereo not drawn) [compound 59, 2-((6-((5-chloro-2-(4-(2-(2-(2-(2-((2-(2,6-dioxopiperidin-3-yl)-1-oxoisoindolin-5-yl)oxy)ethoxy)ethoxy)ethoxy)ethoxy)piperidin-1-yl)pyrimidin-4-yl)amino)-1-methyl-2-oxo-1,2-dihydroquinolin-3-yl)oxy)-N-methylacetamide]: the DC50 is more than 100 nM.

Consider `CNC(=O)COc1cc2cc(Nc3nc(N4CCC(OCCOCCOCCOCCOc5ccc6c(c5)C(=O)N(C5CCC(=O)NC5=O)C6=O)CC4)ncc3Cl)ccc2n(C)c1=O` (stereo not drawn) [compound 60, 2-((6-((5-chloro-2-(4-(2-(2-(2-(2-((2-(2,6-dioxopiperidin-3-yl)-1,3-dioxoisoindolin-5-yl)oxy)ethoxy)ethoxy)ethoxy)ethoxy)piperidin-1-yl)pyrimidin-4-yl)amino)-1-methyl-2-oxo-1,2-dihydroquinolin-3-yl)oxy)-N-methylacetamide], for which the DC50 was more than 100 nM.

Turning to `CNC(=O)COc1cc2cc(Nc3nc(N4CCC(OCCOCCOc5ccc6c(c5)CN(C5CCC(=O)NC5=O)C6=O)CC4)ncc3Cl)ccc2n(C)c1=O` (stereo not drawn) [compound 61, 2-((6-((5-chloro-2-(4-(2-(2-((2-(2,6-dioxopiperidin-3-yl)-1-oxoisoindolin-5-yl)oxy)ethoxy)ethoxy)piperidin-1-yl)pyrimidin-4-yl)amino)-1-methyl-2-oxo-1,2-dihydroquinolin-3-yl)oxy)-N-methylacetamide], the DC50 lay in the range of 10 to 50 nM.

For `CNC(=O)COc1cc2cc(Nc3nc(N4CCC(OCCOCCOc5ccc6c(c5)C(=O)N(C5CCC(=O)NC5=O)C6=O)CC4)ncc3Cl)ccc2n(C)c1=O` (stereo not drawn) [compound 63, 2-((6-((5-chloro-2-(4-(2-(2-((2-(2,6-dioxopiperidin-3-yl)-1,3-dioxoisoindolin-5-yl)oxy)ethoxy)ethoxy)piperidin-1-yl)pyrimidin-4-yl)amino)-1-methyl-2-oxo-1,2-dihydroquinolin-3-yl)oxy)-N-methylacetamide], the DC50 was 10 to 50 nM.

As for `CNC(=O)COc1cc2cc(Nc3nc(N4CCC(OCCOCCOCCOCCOCCOc5ccc6c(c5)C(=O)N(C5CCC(=O)NC5=O)C6=O)CC4)ncc3Cl)ccc2n(C)c1=O` (stereo not drawn) [compound 64, 2-((6-((5-chloro-2-(4-((14-((2-(2,6-dioxopiperidin-3-yl)-1,3-dioxoisoindolin-5-yl)oxy)-3,6,9,12-tetraoxatetradecyl)oxy)piperidin-1-yl)pyrimidin-4-yl)amino)-1-methyl-2-oxo-1,2-dihydroquinolin-3-yl)oxy)-N-methylacetamide], the DC50 was more than 100 nM.

As to `CNC(=O)COc1cc2cc(Nc3nc(N4CCC(OCCOCCOCCOc5ccc6c(c5)CN(C5CCC(=O)NC5=O)C6=O)CC4)ncc3Cl)ccc2n(C)c1=O` (stereo not drawn) [compound 65, 2-((6-((5-chloro-2-(4-(2-(2-(2-((2-(2,6-dioxopiperidin-3-yl)-1-oxoisoindolin-5-yl)oxy)ethoxy)ethoxy)ethoxy)piperidin-1-yl)pyrimidin-4-yl)amino)-1-methyl-2-oxo-1,2-dihydroquinolin-3-yl)oxy)-N-methylacetamide], the DC50 was more than 100 nM.

On to `CNC(=O)COc1cc2cc(Nc3nc(N4CCC(OCCOCCOCCOCCNc5cccc6c5C(=O)N(C5CCC(=O)NC5=O)C6=O)CC4)ncc3Cl)ccc2n(C)c1=O` (stereo not drawn) [compound 66, 2-((6-((5-chloro-2-(4-(2-(2-(2-(2-((2-(2,6-dioxopiperidin-3-yl)-1,3-dioxoisoindolin-4-yl)amino)ethoxy)ethoxy)ethoxy)ethoxy)piperidin-1-yl)pyrimidin-4-yl)amino)-1-methyl-2-oxo-1,2-dihydroquinolin-3-yl)oxy)-N-methylacetamide], for which the DC50 is more than 100 nM.

Regarding `CNC(=O)COc1cc2cc(Nc3nc(N4CCC(OCCOCCOCCOCCOCCOCCOc5ccc6c(c5)CN(C5CCC(=O)NC5=O)C6=O)CC4)ncc3Cl)ccc2n(C)c1=O` (stereo not drawn) [compound 67, 2-((6-((5-chloro-2-(4-((17-((2-(2,6-dioxopiperidin-3-yl)-1-oxoisoindolin-5-yl)oxy)-3,6,9,12,15-pentaoxaheptadecyl)oxy)piperidin-1-yl)pyrimidin-4-yl)amino)-1-methyl-2-oxo-1,2-dihydroquinolin-3-yl)oxy)-N-methylacetamide], the DC50 was more than 100 nM.

In the case of `CNC(=O)COc1cc2cc(Nc3nc(N4CCC(OCCOCCOCCOCCOCCOCCOc5ccc6c(c5)C(=O)N(C5CCC(=O)NC5=O)C6=O)CC4)ncc3Cl)ccc2n(C)c1=O` (stereo not drawn) [compound 68, 2-((6-((5-chloro-2-(4-((17-((2-(2,6-dioxopiperidin-3-yl)-1,3-dioxoisoindolin-5-yl)oxy)-3,6,9,12,15-pentaoxaheptadecyl)oxy)piperidin-1-yl)pyrimidin-4-yl)amino)-1-methyl-2-oxo-1,2-dihydroquinolin-3-yl)oxy)-N-methylacetamide], the DC50 is more than 100 nM.

For the compound `CNC(=O)COc1cc2cc(Nc3nc(N4CCC(OCCOCCOCCOCCOCCNc5cccc6c5C(=O)N(C5CCC(=O)NC5=O)C6=O)CC4)ncc3Cl)ccc2n(C)c1=O` (stereo not drawn) [compound 69, 2-((6-((5-chloro-2-(4-((14-((2-(2,6-dioxopiperidin-3-yl)-1,3-dioxoisoindolin-4-yl)amino)-3,6,9,12-tetraoxatetradecyl)oxy)piperidin-1-yl)pyrimidin-4-yl)amino)-1-methyl-2-oxo-1,2-dihydroquinolin-3-yl)oxy)-N-methylacetamide], the DC50 was more than 100 nM.

In the case of `CNC(=O)COc1cc2cc(Nc3nc(N4CCC(OCCOCCOCC(=O)N[C@H](C(=O)N5C[C@H](O)C[C@H]5C(=O)NCc5ccc(-c6scnc6C)cc5)C(C)(C)C)CC4)ncc3Cl)ccc2n(C)c1=O` [compound 70, (2S,4R)-1-((S)-2-(2-(2-(2-((1-(5-chloro-4-((1-methyl-3-(2-(methylamino)-2-oxoethoxy)-2-oxo-1,2-dihydroquinolin-6-yl)amino)pyrimidin-2-yl)piperidin-4-yl)oxy)ethoxy)ethoxy)acetamido)-3,3-dimethylbutanoyl)-4-hydroxy-N-(4-(4-methylthiazol-5-yl)benzyl)pyrrolidine-2-carboxamide], the DC50 was more than 100 nM.

Regarding `CNC(=O)COc1cc2cc(Nc3nc(N4CCC(OCCOc5ccc6c(c5)CN(C5CCC(=O)NC5=O)C6=O)CC4)ncc3Cl)ccc2n(C)c1=O` (stereo not drawn) [compound 71, 2-((6-((5-chloro-2-(4-(2-((2-(2,6-dioxopiperidin-3-yl)-1-oxoisoindolin-5-yl)oxy)ethoxy)piperidin-1-yl)pyrimidin-4-yl)amino)-1-methyl-2-oxo-1,2-dihydroquinolin-3-yl)oxy)-N-methylacetamide], the DC50 fell in the range of 50 to 100 nM.

Consider `CNC(=O)COc1cc2cc(Nc3nc(N4CCC(OCCOc5ccc6c(c5)C(=O)N(C5CCC(=O)NC5=O)C6=O)CC4)ncc3Cl)ccc2n(C)c1=O` (stereo not drawn) [compound 72, 2-((6-((5-chloro-2-(4-(2-((2-(2,6-dioxopiperidin-3-yl)-1,3-dioxoisoindolin-5-yl)oxy)ethoxy)piperidin-1-yl)pyrimidin-4-yl)amino)-1-methyl-2-oxo-1,2-dihydroquinolin-3-yl)oxy)-N-methylacetamide], for which the DC50 was 50 to 100 nM.

As to `CN1C(=O)CCc2cc(Nc3cc(OC4CCN(CCOCCOc5ccc6c(c5)C(=O)N(C5CCC(=O)NC5=O)C6=O)CC4)c([N+](=O)[O-])cc3Cl)ccc21` (stereo not drawn) [compound 73, 5-(2-(2-(4-(4-chloro-5-((1-methyl-2-oxo-1,2,3,4-tetrahydroquinolin-6-yl)amino)-2-nitrophenoxy)piperidin-1-yl)ethoxy)ethoxy)-2-(2,6-dioxopiperidin-3-yl)isoindoline-1,3-dione], the DC50 was more than 100 nM.

For `O=C1CCC(N2C(=O)c3ccc(OCCOCCN4CCC(Oc5cc(Nc6ccc7c(c6)CCC(=O)N7)c(Cl)cc5[N+](=O)[O-])CC4)cc3C2=O)C(=O)N1` (stereo not drawn) [compound 74, 5-(2-(2-(4-(4-chloro-2-nitro-5-((2-oxo-1,2,3,4-tetrahydroquinolin-6-yl)amino)phenoxy)piperidin-1-yl)ethoxy)ethoxy)-2-(2,6-dioxopiperidin-3-yl)isoindoline-1,3-dione], the DC50 is more than 100 nM.
